In patent US20170152226A1, “FUNCTIONALISED AND SUBSTITUTED INDOLES AS ANTI-CANCER AGENTS” (Novogen Ltd., priority 2014, published 2017):
pIC50: −log10 of the molar value. Where two headings read alike, the source gives them in different places.

Experiments:
Format in all cases: cell-based
IL-21 = experiment: Inhibition of cytokine release from PBMCs (HTRF); details: PBMC, human PBMCs, PMA and ionomycin stimulated
Experimental: (§1) The ability of compounds 3507, 3520, 3534 and 3538 to inhibit the release of cytokines TNF-α, IFN-γ, IL-6, IL-21, IL-17A and IL-23 was evaluated in vitro (Tables 4 and 5). Briefly, human peripheral blood mononuclear cells (PBMCs) were isolated from human peripheral blood by Histopaque density gradient centrifugation. The freshly isolated PBMCs were seeded at 50,000 cells/well in a 96-well half area plate. PBMCs were dosed with the test compounds (at 10 μM, 1 μM and 0.1 μM) and then incubated at 37° C. and 5% CO2 for 2 hours. To stimulate release of the cytokines IFN-γ, IL-21, IL-17A and IL-23, the PBMCs were treated with 50 ng/mL of phorbol 12-myristate 13-acetate (PMA) and 1 μg/mL of ionomycin and to stimulate the release of TNF-α and IL-6, PBMCs were treated with 100 ng/mL of lipopolysaccharide (LPS) from gram-negative bacteria. The PBMCs were then incubated at 37° C. and 5% CO2 for a further 6 hours and the cell supernatant was collected and a Homogenous Time Resolved Fluorescence (HTRF) assay was carried out following the manufacturer's instructions. Cytokine release from the PBMCs was captured using a Perkin Elmer ENVISION 2104 microplate reader set at 615 nm and 665 nm respectively.

IFN-γ = experiment: Inhibition of cytokine release from PBMCs (HTRF); details: PBMC, human PBMCs, PMA and ionomycin stimulated
Experimental: as §1

IL-6 = experiment: Inhibition of cytokine release from PBMCs (HTRF); details: PBMC, human PBMCs, LPS stimulated
Experimental: as §1

IL-17A = experiment: Inhibition of cytokine release from PBMCs (HTRF); details: PBMC, human PBMCs, PMA and ionomycin stimulated
Experimental: as §1

IL-23 = experiment: Inhibition of cytokine release from PBMCs (HTRF); details: PBMC, human PBMCs, PMA and ionomycin stimulated
Experimental: as §1

TNF-α = experiment: Inhibition of cytokine release from PBMCs (HTRF); details: PBMC, human PBMCs, LPS stimulated
Experimental: as §1

CaCo2 = experiment: Anti-proliferative activity, cell-titre luminescent viability assay; details: Homo sapiens, read-out: IC50 Colorectal CaCo2
Procedure, shortened: (§2)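 Cells were seeded at pre-determined densities, cultured 24 hours at 37° C/5% CO2, then exposed 72 hours to compound at 0.03, 0.3, 3 and 30 μM or at 0.1, 0.3, 1, 3, 10 and 30 μM. Viability was read by cell-titre luminescence after 30 min, normalized to untreated control, and IC50 or EC50 derived.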

MDA-MB-231 = experiment: as above; details: Homo sapiens, read-out: IC50 Breast MDA-MB-231
Procedure, shortened: as §2

SK-N-SH = experiment: as above; details: Homo sapiens, SK-N-SH, read-out: IC50 Neuroblastoma SK-N-SH
Procedure, shortened: as §2

PC3 = experiment: as above; details: Homo sapiens, read-out: IC50 Prostate PC3
Procedure, shortened: as §2

A549 = experiment: as above; details: Homo sapiens, read-out: IC50 Lung (NSLC) A549
Procedure, shortened: as §2

SK-Mel-28 = experiment: as above; details: Homo sapiens, SK-MEL-28, 72 hours, read-out: IC50 Melanoma SK-Mel-28
Procedure, shortened: as §2

DU145 = experiment: as above; details: Homo sapiens, read-out: IC50 Prostate DU145
Procedure, shortened: as §2

[1] = test system: total actin cytoskeleton in SK-N-SH neuroblastoma cells; experiment: Microfilament disruption assay, phalloidin staining; details: 0-40 μM, 24 hours post treatment
Experimental: (§3) FIG. 1: Imaging and quantitation of actin filaments in SK-N-SH neuroblastoma cells treated with compound (A) 3504, (B) 3507 and (C) 3516. Cells were stained with 488-Atto-Phallodin and DAPI to visualize the actin filament bundles and the nucleus, respectively. Shown in the top panel is a representative grey scale immunofluorescent image from control (vehicle alone), 5 μM and 10 μM treated cells. […] The coloured lines indicate the detected actin filaments. Also shown is the quantitation of cell number, filament number/cell and filament number/cell area (μM^2). […]
(§4) The ability of compounds 3504, 3507 and 3516 to disrupt the total actin cytoskeleton (FIG. 1) and to specifically target Tpm3.1-containing actin filaments (FIG. 2) was assessed in vitro using the microfilament disruption assay.
(§5) Briefly, SK-N-SH neuroblastoma cells were seeded at 1800 cells/well in a 384 Perkin Elmer High Content Imaging “View” plate and left to plate down 24 hours prior to treatment. […] Images were then exported and changes in the organization and numbers of actin filaments within the cell were quantitated using a linear feature detection algorithm developed by the CSIRO (Vindin et al., 2014). […] It is these “ridge lines” that correspond to actin filament bundles and allow us to quantitate the number of filaments per cell.

[2] = test system: Tpm3.1-containing actin filaments in SK-N-SH neuroblastoma cells; experiment: Microfilament disruption assay, γ9d staining; details: 0-40 μM, 24 hours post treatment
Experimental: as §3, with “FIG. 2:” for “FIG. 1:”, “with γ9d (sheep polycolonal, 1:100) followed by 488-conjugated secondary (1:1000)” for “with 488-Atto-Phallodin”, “the Tpm3.1 containing” for “the actin”
as §4, §5

[3] = Caco-2, 72 h, 0.03, 0.3, 3 and 30 μM, linear regression of semi-log plots
[4] = MDA-MB-231, 72 h, 0.03, 0.3, 3 and 30 μM, linear regression of semi-log plots
[5] = 72 h, 0.03, 0.3, 3 and 30 μM, linear regression of semi-log plots
[6] = PC-3, 72 h, 0.03, 0.3, 3 and 30 μM, linear regression of semi-log plots
[7] = A549, 72 h, 0.03, 0.3, 3 and 30 μM, linear regression of semi-log plots
[8] = 0.03, 0.3, 3 and 30 μM, linear regression of semi-log plots
[9] = DU-145, 72 h, 0.03, 0.3, 3 and 30 μM, linear regression of semi-log plots

pIC50 (CaCo2; [3]) | pIC50 (MDA-MB-231; [4]) | Structure (SMILES) | inhibition at 0.1 µM (IL-21) [%] | inhibition at 1 µM (IL-21) [%] | inhibition at 10 µM (IL-21) [%] | inhibition at 0.1 µM (IFN-γ) [%] | inhibition at 1 µM (IFN-γ) [%] | inhibition at 10 µM (IFN-γ) [%] | inhibition at 0.1 µM (IL-6) [%] | inhibition at 1 µM (IL-6) [%] | inhibition at 10 µM (IL-6) [%] | inhibition at 0.1 µM (IL-17A) [%] | inhibition at 1 µM (IL-17A) [%] | inhibition at 10 µM (IL-17A) [%] | inhibition at 0.1 µM (IL-23) [%] | inhibition at 1 µM (IL-23) [%] | inhibition at 10 µM (IL-23) [%] | inhibition at 0.1 µM (TNF-α) [%] | inhibition at 1 µM (TNF-α) [%] | inhibition at 10 µM (TNF-α) [%] | also measured
– | – | COc1ccc2cc(CCN3CCN(C(=O)c4cccc(Cc5ccc6c(c5)c(C)c(C)n6CCCN5CCN(C)CC5)c4)CC3)ccc2c1 [Compound 3538, (3-((2,3-dimethyl-1-(3-(4-methylpiperazin-1-yl)propyl)-1H-indol-5-yl)methyl)phenyl)(4-(2-(6-methoxynaphthalen-2-yl)ethyl)piperazin-1-yl)methanone] | 1 | 8 | 11 | 24 | 58 | 86 | -13 | -13 | -10 | 21 | 42 | 86 | -19 | -20 | 30 | -10 | -4 | -7 | pIC50 (CaCo2; Caco-2, 72 h, 0.1, 0.3, 1, 3, 10 and 30 μM, nonlinear regression sigmoidal dose-response (EC50)): 5.24; pIC50 (MDA-MB-231; MDA-MB-231, 72 h, 0.1, 0.3, 1, 3, 10 and 30 μM, nonlinear regression sigmoidal dose-response (EC50)): 5.44; pIC50 (SK-N-SH; 72 h, 0.1, 0.3, 1, 3, 10 and 30 μM, nonlinear regression sigmoidal dose-response (EC50)): 5.32; pIC50 (PC3; PC-3, 72 h, 0.1, 0.3, 1, 3, 10 and 30 μM, nonlinear regression sigmoidal dose-response (EC50)): 5.41; pIC50 (A549; A549, 72 h, 0.1, 0.3, 1, 3, 10 and 30 μM, nonlinear regression sigmoidal dose-response (EC50)): 5.37; pIC50 (SK-Mel-28; 0.1, 0.3, 1, 3, 10 and 30 μM, nonlinear regression sigmoidal dose-response (EC50)): 5.48; pIC50 (DU145; DU-145, 72 h, 0.1, 0.3, 1, 3, 10 and 30 μM, nonlinear regression sigmoidal dose-response (EC50)): 5.38
5.46 | 5.55 | COc1ccc(CCN2CCN(C(=O)c3ccc(Cc4ccc5c(c4)c(C)c(C)n5CCCN4CCN(C)CC4)cc3)CC2)cc1 [Compound 3520, (4-((2,3-dimethyl-1-(3-(4-methylpiperazin-1-yl)propyl)-1H-indol-5-yl)methyl)phenyl)(4-(4-methoxyphenethyl)piperazin-1-yl)methanone] | -8 | -13 | -12 | 1 | 0 | 4 | -10 | -9 | 3 | -11 | -7 | 1 | -8 | -1 | 12 | -8 | -10 | -14 | pIC50 (SK-N-SH; [5]): 5.64; pIC50 (PC3; [6]): 5.64; pIC50 (A549; [7]): 5.62; pIC50 (SK-Mel-28; [8]): 5.60; pIC50 (DU145; [9]): 5.57
5.68 | 5.89 | Cc1c(C)n(CCCN2CCN(C)CC2)c2ccc(Nc3cccc(C(=O)N4CCN(CCc5cccc(F)c5)CC4)c3)cc12 [Compound 3516, (3-((2,3-dimethyl-1-(3-(4-methylpiperazin-1-yl)propyl)-1H-indol-5-yl)amino)phenyl)(4-(3-fluorophenethyl)piperazin-1-yl)methanone] | – | – | – | – | – | – | – | – | – | – | – | – | – | – | – | – | – | – | disruption of the total actin cytoskeleton [1]: in a dose-dependent manner; disruption of Tpm3.1-containing actin filaments [2]: in a dose-dependent manner; pIC50 (SK-N-SH; [5]): 5.85; pIC50 (PC3; [6]): 5.46; pIC50 (A549; [7]): 5.66; pIC50 (SK-Mel-28; [8]): 5.59; pIC50 (DU145; [9]): 5.52
5.49 | 5.80 | Cc1c(C)n(CCCN2CCN(C)CC2)c2ccc(Nc3ccc(C(=O)N4CCN(CCc5cccc(F)c5)CC4)cc3)cc12 [Compound 3534, (4-((2,3-dimethyl-1-(3-(4-methylpiperazin-1-yl)propyl)-1H-indol-5-yl)amino)phenyl)(4-(3-fluorophenethyl)piperazin-1-yl)methanone] | 0 | -8 | 11 | 23 | 39 | 85 | 13 | 21 | 48 | 1 | 1 | 12 | -5 | -1 | 20 | 2 | 5 | -12 | pIC50 (SK-N-SH; [5]): 5.85; pIC50 (PC3; [6]): 5.55; pIC50 (A549; [7]): 5.82; pIC50 (SK-Mel-28; [8]): 5.92; pIC50 (DU145; [9]): 5.85
